In patent US20090048332A1, “Natural Novel Antioxidants” (HEJ Research Insitute, priority 2007, published 2009):

Assay: superoxide radical scavenging assay (SOR; NADH/PMS/NBT)
Assay type: biochemical
Details: for IC50: super oxide scavenging assay, formazan absorbance at 560 nm after three minutes, concentration needed to scavenge 50% of super oxide radicals, read-out: SOI (IC50 ± SEM); for IC50 compared with propyl gallate standard: comparison in words, refers to Table 1; for radical scavenging activity in the SOR assay: qualitative statement
Description: The reaction mixture contained 10 μL of test samples (1 mM in dimethylsulfoxide), 90 μL of 0.1 M phosphate buffer (pH 7.4), 40 μL of (280 μM) β-nicotanamide adenine dinucleotide (NADH), 40 μL of (80 μM) nitro blue tetrazolium (NBT). The reaction was initiated by the addition of 20 μL of (8 μM) phenazine methosulphate (PMS). The solutions of NADH, NBT and PMS were prepared in phosphate buffer. The formation of superoxide was monitored by measuring the absorbance of the blue formazan dye after three minutes at 560 nm against the corresponding blank solutions in microtitre plate using Elisa (multiple reader spectra Max-3400). IC50 value represents concentration of compounds needed to scavenge 50% of super oxide radicals. Propyl gallate was used as a positive control. All chemicals used were of analytical grade (Sigma Chemicals, USA).

Row | SMILES | IC50 | SOR activity on per-methylation (permethylated derivatives of the depsides) | IC50 compared with propyl gallate standard | radical scavenging activity in the SOR assay
1 | COc1ccc(O)c(C(C)(C)C)c1 [BHA, butylated hydroxy anisole, reference compound] | 96 ± 1.75 µM |  |  | 
2 | CCCOC(=O)c1cc(O)c(O)c(O)c1 [propyl gallate, Propyl gallate, reference compound] | 106 ± 1.7 µM |  |  | 
3 | COC(=O)c1c(C)cc(OC(=O)c2c(C)cc(OC)cc2OC)cc1OC [permethylated lecanoric acid] |  | lost |  | 
4 | Cc1cc(OC(=O)c2c(C)cc(O)cc2O)cc(O)c1C(=O)O [Lecanoric acid, lecanoric acid] | 91.5 ± 2.1 µM |  | lower than the propyl gallate standard | exceptionally high percentage of radical scavenging activity
5 | Cc1cc(OC(=O)c2c(C)cc(O)cc2O)cc(O)c1C(=O)OC[C@H](O)[C@H](O)CO [Erythrin, erythrin] | 127 ± 0.97 µM |  |  | exceptionally high percentage of radical scavenging activity
6 | CCCCCc1c2c(cc(O)c1C(=O)O)OC(=O)c1c(cc(OC)cc1C(=O)CCCC)O2 [Lobaric acid, lobaric acid] | 97.9 ± 1.6 µM |  | lower than the propyl gallate standard | exceptionally high percentage of radical scavenging activity
7 | CCCc1cc(OC)cc(O)c1C(=O)Oc1c(OC)cc(CCC)c(C(=O)O)c1O [Sekikiac acid, sekikaic acid] | 81.97 ± 0.31 µM |  | lower than the propyl gallate standard | exceptionally high percentage of radical scavenging activity
